# What was measured:
# [1] = Solution levels of terpenes in water (true solution by shear blending); format: physicochemical; details: maximum level solubilized in water by solution-forming shear blending
# root-knot nematodes = assay: Nematicidal activity of high purity versus low purity citral; format: in vivo, root-knot nematode; details: average of four replicates
# Experimental: Compositions of regular and technical ciral at 250 and 125 ppm were produced in 1% Tween 80 and incubated with root-knot nematodes a in the same way as previously described. Observations of the kill rate (percentage dead) were made at 21 and 42 hours.
# The results are shown below in Table 13 and are the average of four replicates.
# [2] = Terpene stability: yellow colored oxidation product (colour of encapsulated terpene pellet); format: physicochemical; parameters: key to Colour: W = white; Y = yellow; sl = slight; int = intermediate
# Experimental: Loading reactions were set up as shown in Table 25 and left to incubate overnight. Samples were centrifuged at 14,000×g for 10 minutes and the appearance of free terpene floating on the aqueous layer and the color of the encapsulated terpenes in the pellet was scored. The highest volume of terpene absorbed by particles as evidenced by the absence of free terpene was recorded as the volume of absorbed terpene emulsion. The reactions were incubated for 1, 3, 6, 9 and 24 hours at room temperature or 37° C. After incubation samples were centrifuged at 14,000×g for 10 minutes and the appearance of free terpene floating on the aqueous layer was scored. The highest volume of terpene absorbed by the particles as evidenced by the absence of free terpene was recorded as the volume of absorbed terpene emulsion. Colour of the encapsulated pellet was scored at 24 hours. Increasing volumes of terpene emulsion were mixed with 250 mg/ml Baker's YP or 250 mg/ml SAF Mannan™ overnight at room temperature as shown in Tables 27 and 28. Samples were centrifuged at 14,000×g for 10 minutes and the appearance of free terpene floating on the aqueous layer was scored. The highest volume of terpene emulsion absorbed by Baker's YP or SAF Mannan™ as evidenced by the absence of free terpene was recorded as the volume of absorbed terpene emulsion. Colour of encapsulated terpenes in the pellet was recorded.
# [3] = Baker's YP loading of different terpenes and terpene mixtures; format: physicochemical; parameters: key to Free Terpene: +: “free terpene” refers to the visible presence of terpene in the centrifuged reaction mixture; −: The absence of free terpene indicates complete absorption of the terpene by the particles; details: for Free Terpene: Baker's YP 250 mg/ml 500 μl; for Vol. Loaded μl: approximate maximal terpene loading in Baker's YP; for % Loaded w/w: maximal loading in Baker's YP, ratio of terpene loaded to particle present, weight for weight
# Experimental: (§1) Increasing volumes of terpene emulsion were mixed with 250 mg/ml Baker's YP or 250 mg/ml SAF Mannan™ overnight at room temperature as shown in Tables 27 and 28. Samples were centrifuged at 14,000×g for 10 minutes and the appearance of free terpene floating on the aqueous layer was scored. The highest volume of terpene emulsion absorbed by Baker's YP or SAF Mannan™ as evidenced by the absence of free terpene was recorded as the volume of absorbed terpene emulsion. Colour of encapsulated terpenes in the pellet was recorded.
# (§2) Percentage loaded represents a ratio of the amount of terpene loaded to the amount of particle present (weight for weight).
# [4] = SAF Mannan loading of different terpenes and terpene mixtures; format: physicochemical; parameters: key to Free Terpene: +: “free terpene” refers to the visible presence of terpene in the centrifuged reaction mixture; −: The absence of free terpene indicates complete absorption of the terpene by the particles; key to Free Terpene: phase inversion remark: Inverted = Phase Inverted - solids floating on top - no free oil; W = white; Y = yellow; details: for Free Terpene: SAF Mannan 500 μl (250 mg/ml), overnight, room temperature; for Vol. loaded (maximal terpene loading in SAF Mannan): approximate maximal loading, volume of terpene emulsion absorbed by SAF Mannan; for % Loaded w/w (maximal terpene loading in SAF Mannan): ratio of amount of terpene loaded to amount of particle present (weight for weight); for Free Terpene: phase inversion remark: SAF Mannan 500 μl, second line of the Free Terpene cell
# Experimental: as §1, §2
# [5] = Table 27, Baker's YP, emulsion 15 μl
# [6] = Table 27, Baker's YP, emulsion 37.5 μl
# [7] = Table 27, Baker's YP, emulsion 75 μl
# [8] = Table 27, Baker's YP, emulsion 112.5 μl
# [9] = Table 27, Baker's YP, emulsion 150 μl
# [10] = Table 27, Baker's YP, emulsion 225 μl
# [11] = Table 27, Baker's YP, emulsion 450 μl
# [12] = colour of encapsulated terpene in pellet, SAF Mannan 500 μl, terpene emulsion vol 15
# [13] = colour of encapsulated terpene in pellet, SAF Mannan 500 μl, terpene emulsion vol 37.5
# [14] = colour of encapsulated terpene in pellet, SAF Mannan 500 μl, terpene emulsion vol 75
# [15] = colour of encapsulated terpene in pellet, SAF Mannan 500 μl, terpene emulsion vol 112.5
# [16] = colour of encapsulated terpene in pellet, SAF Mannan 500 μl, terpene emulsion vol 150
# [17] = colour of encapsulated terpene in pellet, SAF Mannan 500 μl, terpene emulsion vol 225
# [18] = colour of encapsulated terpene in pellet, SAF Mannan 500 μl, terpene emulsion vol 450
# [19] = emulsion 15 μl, 1% Tween-80 485 μl
# [20] = emulsion 37.5 μl, 1% Tween-80 462.5 μl
# [21] = emulsion 75 μl, 1% Tween-80 425 μl
# [22] = emulsion 150 μl, 1% Tween-80 350 μl
# [23] = emulsion 225 μl, 1% Tween-80 275 μl
# [24] = emulsion 450 μl, 1% Tween-80 50 μl
# [25] = terpene emulsion vol 15, 1% Tween-80 485 μl
# [26] = terpene emulsion vol 37.5, 1% Tween-80 462.5 μl
# [27] = terpene emulsion vol 75, 1% Tween-80 425 μl
# [28] = terpene emulsion vol 150, 1% Tween-80 350 μl
# [29] = terpene emulsion vol 225, 1% Tween-80 275 μl
# [30] = terpene emulsion vol 450, 1% Tween-80 50 μl
compound,measurement,setting,value
C=C(C)C1CC=C(C)C(=O)C1 (stereo not shown) [Carvone],Solution Level,[1],500 ppm
"CC(C)=CCCC(C)=CC=O [Citral (80% pure), citral]",average percentage dead,"root-knot nematodes; 125 ppm in 1% Tween 80, 21 h",29%
same,average percentage dead,"root-knot nematodes; 125 ppm in 1% Tween 80, 42 h",27%
same,average percentage dead,"root-knot nematodes; 250 ppm in 1% Tween 80, 21 h",89%
same,average percentage dead,"root-knot nematodes; 250 ppm in 1% Tween 80, 42 h",96%
"CC(C)=CCCC(C)=CC=O [Citral (98% pure), citral]",average percentage dead,"root-knot nematodes; 125 ppm in 1% Tween 80, 21 h",23%
same,average percentage dead,"root-knot nematodes; 125 ppm in 1% Tween 80, 42 h",22%
same,average percentage dead,"root-knot nematodes; 250 ppm in 1% Tween 80, 21 h",87%
same,average percentage dead,"root-knot nematodes; 250 ppm in 1% Tween 80, 42 h",87%
C=CCc1ccc(O)c(OC)c1 [Eugenol],Colour,[2]; [5],W
same,Colour,[2]; [6],W
same,Colour,[2]; [7],W
same,Colour,[2]; [8],W
same,Colour,[2]; [9],W
same,Colour,[2]; [10],W
same,Colour,[2]; [11],W
same,Colour,[2]; [12],W
same,Colour,[2]; [13],W
same,Colour,[2]; [14],W
same,Colour,[2]; [15],W
same,Colour,[2]; [16],W
same,Colour,[2]; [17],W
same,Colour,[2]; [18],W
same,Free Terpene,[3]; [19],−
same,Free Terpene,[3]; [20],−
same,Free Terpene,[3]; [21],−
same,Free Terpene,[3]; [22],+
same,Free Terpene,[3]; [23],+
same,Free Terpene,[3]; [24],+
same,Vol. Loaded μl,[3],75 µL
same,% Loaded w/w,[3],67% w/w
same,Free Terpene,[4]; [25],−
same,Free Terpene,[4]; [26],−
same,Free Terpene,[4]; [27],−
same,Free Terpene,[4]; [28],+
same,Free Terpene,[4]; [29],+
same,Free Terpene,[4]; [30],+
same,Vol. loaded (maximal terpene loading in SAF Mannan),[4],112.5 µL
same,% Loaded w/w (maximal terpene loading in SAF Mannan),[4],100% w/w
CC(C)=CCC/C(C)=C/CO [Geraniol],Colour,[2]; [5],W
same,Colour,[2]; [6],W
same,Colour,[2]; [7],W
same,Colour,[2]; [8],W
same,Colour,[2]; [9],W
same,Colour,[2]; [10],W
same,Colour,[2]; [11],W
same,Colour,[2]; [12],W
same,Colour,[2]; [13],W
same,Colour,[2]; [14],W
same,Colour,[2]; [15],W
same,Colour,[2]; [16],W
same,Colour,[2]; [17],W
same,Colour,[2]; [18],W
same,Free Terpene,[3]; [19],−
same,Free Terpene,[3]; [20],−
same,Free Terpene,[3]; [21],−
same,Free Terpene,"[3]; emulsion 112.5 μl, 1% Tween-80 387.5 μl",+
same,Free Terpene,[3]; [22],+
same,Free Terpene,[3]; [23],+
same,Free Terpene,[3]; [24],+
same,Vol. Loaded μl,[3],75 µL
same,% Loaded w/w,[3],67% w/w
same,Solution Level,[1],500 ppm
same,Free Terpene,[4]; [25],−
same,Free Terpene,[4]; [26],−
same,Free Terpene,[4]; [27],−
same,Free Terpene,"[4]; terpene emulsion vol 112.5, 1% Tween-80 387.5 μl",−
same,Free Terpene,[4]; [28],−
same,Free Terpene,[4]; [29],−
same,Free Terpene,[4]; [30],+
same,Free Terpene: phase inversion remark,[4]; terpene emulsion vol 225,Inverted
same,Free Terpene: phase inversion remark,[4]; terpene emulsion vol 450,Inverted
same,Vol. loaded (maximal terpene loading in SAF Mannan),[4],150 µL
same,% Loaded w/w (maximal terpene loading in SAF Mannan),[4],133% w/w
CC(=O)/C=C/C1=C(C)CCCC1(C)C [b-ionone],Solution Level,[1],500 ppm
Terpeniol,Solution Level,[1],500 ppm

# Source: patent US10729130B2, “Nematicidal compositions and methods of using them” (Eden Research plc, priority 2004, dated 2020)
